Tested on: liver-adipose crosstalk MPSs
Experiment: Disease severity in NAFLD liver-adipose crosstalk MPS after treatment
Assay type: cell-based, human
Conditions: MHM-induced NAFLD liver-adipose crosstalk MPS; no data shown
Experimental: The disease modifying potential of targets is evaluated using one or both of large and small molecules and functional genomics tools, such as CRISPR. For example, large molecules can include ligand antagonists, Humira (adalimumab) blocks, and TNF-α. Healthy and NAFLD liver-adipose MPSs are established previously described. Following disease induction, the liver-adipose MPSs are treated with small molecules (alone and in combination) or CRISPR short guide RNAs (sgRNAs) that modulate the activity or expression of disease-relevant signaling pathways (e.g. CCR2-5, FXR, PPARγ, PPARβ/δ, and PPARγ) as previously described in relation to FIG. 4. The dosing regimen are optimized using the efficacy data generated using the liver and adipose spheroids previously described. The disease-modifying potential of the therapeutic treatment regimens in the liver-adipose crosstalk MPS 120 are determined using phenotypic (e.g., IR, steatosis, steatohepatitis, and fibrosis) and biomarker (apoptosis, hepatokine, adipokine, cytokine) readouts.
In the liver-adipose MPS 120, MHM induces a NAFLD phenotype in the liver (e.g., oxidative stress, steatosis, and fibrosis) and adipose tissue (e.g., steatosis) compared to MPSs cultured in healthy medium. Clinical biomarkers of NAFLD (e.g., AST, ALT, cytokeratin-18) are elevated in diseased systems compared to healthy systems. […]

Compound | severity of the steatosis, fibrosis, and insulin resistance
CCCCOCCOc1ccc(-c2ccc3c(c2)/C=C(/C(=O)Nc2ccc([S@@+]([O-])Cc4cncn4CCC)cc2)CCCN3CC(C)C)cc1 [cenicriviroc] | reduce the severity
CSc1ccc(C(=O)/C=C/c2cc(C)c(OC(C)(C)C(=O)O)c(C)c2)cc1 [elafibranor] | reduce the severity

Reference: US20210156846A1, “MICROFLUIDIC PLATFORM FOR TARGET AND BIOMARKER DISCOVERY FOR NON-ALCOHOLIC FATTY LIVER DISEASE” (Javelin Biotech, Inc., priority 2019, published 2021)
